According to patent US20130281524A1, “NOVEL TREATMENTS” (priority 2008, published 2013):
“Also recorded” adds a separate entry of the source.

How the values were obtained:
trigeminal nerve = conditions: Parsons et al., Brit. J. Pharmacol. 2001, cited from earlier work
connexin 26 = assay: Immunohistochemistry of connexin 26 in trigeminal ganglia after TNF-α and capsaicin; type: in vivo, Sprague Dawley rats; conditions: 10 mg/kg i.p. pre-treatment
Method: (§1) Sprague Dawley rats injected with True Blue were used to localize neuronal cell bodies in the ganglion and study neuron-glia signalling via gap junctions in the trigeminal ganglion. Dye coupling studies were conducted under basal conditions and in response to tumour necrosis factor-α injection into the whisker pad and/or capsaicin injection into the eyebrow. Changes in connexin 26 and active p38 levels were determined by immunohistochemistry.
(§2) In addition, the effect of tonabersat prior to chemical stimulation on gap junction activity and expression of connexins and active p38 was investigated.
Ganglia were collected from untreated animals or animals injected with TNF-α, capsaicin, or TNF-α and capsaicin as described above. Sections were fixed using 4% paraformaldehyde for 60 minutes, permeabilized with 0.3% Triton-X100 for 60 minutes, and then incubated in 5% donkey serum for another 60 minutes. Sections were then incubated overnight at 4° C. with primary antibodies against connexin 26 (1:500 in PBS; Chemicon, Temecula, Calif.) or active p38 MAP kinase (1:200; Cell Signaling Technology, Danvers, Mass.). […]

[1] = tested on: gap junction communication between neurons and satellite glial cells in the trigeminal ganglion; assay: Dye coupling studies (True Blue) of neuron-satellite glia gap junction signalling in trigeminal ganglion after TNF-α and capsaicin; type: in vivo, Sprague Dawley rats; conditions: 10 mg/kg i.p. pre-treatment prior to TNF-α then capsaicin; V1 and V2 regions of ganglia
Method: as §1, §2
Young male rats (200-225 g) were brought to the lab and kept in a quiet environment for about 30 minutes. Rats were anesthetized by an intraperitoneal (i.p.) injection of 0.3 ml of ketamine and xylazine solution (800 mg and 60 mg in 10 ml, respectively; Sigma, St. Louis, Mo.). […] Initially, rats were injected with a fluorescent dye, True Blue (25 μl, 2 mg/ml in dimethyl sulfoxide, DMSO; Invitrogen, Eugene, Oreg.) in the whisker pad or eyebrow regions to retrogradely label neuronal cell bodies within the V1 and V2 regions of the trigeminal ganglion. Bilateral injections were performed using a 50 μL Hamilton syringe (Hamilton Company, Reno, Nev.) and a 261/2 G needle (Becton Dickinson, FranklinLakes, N.J.). […]

active p38 MAP kinase = assay: Immunohistochemistry of active p38 in trigeminal ganglia after TNF-α and capsaicin; type: in vivo, Sprague Dawley rats; conditions: 10 mg/kg i.p. pre-treatment, neurons and satellite glial cells in V1 and V2 regions, compared to TNF-α and capsaicin treated animals
Method: as §1, §2
Ganglia were collected from untreated animals or animals injected with TNF-α, capsaicin, or TNF-α and capsaicin as described above. Sections were fixed using 4% paraformaldehyde for 60 minutes, permeabilized with 0.3% Triton-X100 for 60 minutes, and then incubated in 5% donkey serum for another 60 minutes. Sections were then incubated overnight at 4° C. with primary antibodies against connexin 26 (1:500 in PBS; Chemicon, Temecula, Calif.) or active p38 MAP kinase (1:200; Cell Signaling Technology, Danvers, Mass.). Immunoreactive proteins were visualized following incubation with Rhodamine Red Xconjugated donkey anti-rabbit antibodies (diluted 1:100 in PBS, Jackson Immuno-Research Laboratories, West Grove, Pa.) for 1 hour at room temperature and then mounted in Vectashield medium (H-1200) containing 4′,6 diamidino-2-phenylindole (DAPI) to allow for identification of neuronal and glial cell nuclei. As a control, some sections were incubated for 1 hour at room temperature with only the Rhodamine Red Xconjugated anti-rabbit antibodies. Images were collected as described above.
To determine whether TNF-α sensitization of capsaicin-responsive neurons could lead to increased expression of p38, animals were injected with TNF-α, capsaicin, or both agents and ganglion sections stained for the active phosphorylated form of p38. […]

## CC(=O)c1ccc2c(c1)[C@H](NC(=O)c1ccc(F)c(Cl)c1)[C@H](O)C(C)(C)O2 [tonabersat, cis-6-acetyl-4-(S)-(3-chloro-4-fluorobenzoylamino)-3,4-dihydro-2,2-dimethyl-2H-1-benzopyran-3-(S)-ol]
Trigeminal nerve; 10 mg/kg, animal models
  trigeminal nerve activation: block
Trigeminal nerve
  trigeminal parasympathetic reflexes: blockade
Connexin 26; V1 and V2 regions, compared to animals treated with TNF-α and capsaicin
  level of connexin 26 staining: greatly decreased; also recorded: decrease
Connexin 26; ganglia from TNF-α and capsaicin treated animals, higher magnification
  number of plaques observed between neurons and satellite glial cells: much lower
[1]
  stimulated dye movement between neurons and satellite glial cells (gap junction communication): greatly reduced; also recorded: decrease
Active p38 MAP kinase
  active p38 levels: greatly decreased; also recorded: blocked
  amount of nuclear staining of active p38: greatly decreased
Active p38 MAP kinase; listed as Tonabersat
  active p38 levels: lowered p38 levels to those observed in ganglia obtained from untreated control animals
